Data on 18 compounds can be found in patent US20240325335A1, “BIOLOGICALLY COMPATIBLE, BIOFILM DISRUPTING COMPOSITION AND METHODS” (priority 2023, published 2024).

“And” between values parts separate entries of the source, which are not always exact repeats. Identical values can stand only once. Starred links: 1 amine or outer side, 2 acyl side, 3 side chain; linkers in the order of their positions; H or OH if unused. Positions of bridges follow the written chain, without caps; N, C: chain ends. Non-standard residues stand in square brackets, D forms with d. Residues, ends and D or L forms follow the SMILES beside them. X1 = CC(C)CCCCCCCCC[C@H](CC(=O)[*:1])O[*:2]

For series [1] the following is noted: at 24 hours (Zeichner, '13); cited from earlier work.
The subject of the next series is C. trachomatis. The settings on record: Bergsson, '98; cited from earlier work.
Series [2] has as its system Pseudomonas aeruginosa (ATCC #15442) biofilm. The experiment in a line: Biofilm Protocol #1, ASTM E2871 single tube method, CDC Biofilm Reactor. The settings on record: 5-minute contact time; for Log10 CFU/Coupon: treated coupons.
Series [3] has as its system Staphylococcus aureus (ATCC #6538) biofilm. Described as above. To be noted: 5-minute contact time; for Log10 CFU/Coupon: treated coupons.
For series [4], the system named is Mycobacterium fortuitum (ATCC #6841) biofilm. Briefly: Protocol #6 mycobacterial biofilm in silicone tubing. It is filed as cell-based. The settings on record: pH 9.0, 5 hours contact time. Here is the method:
Two challenge microorganisms are separately evaluated: Brevundimonas diminuta (ATCC #19146) and Mycobacterium fortuitum (ATCC #6841). Biofilms of each challenge microorganism were formed in laboratory-created tubing loops consisting of a length of silicone tubing connected to a bottle of challenge microorganism in growth broth. The fluid within the tubing loop was recirculated for 10 to 14 days (Mycobacterium fortuitum) at a flowrate of 30 mL/minute while held at 36° C. (Mycobacterium fortuitum). Following completion of biofilm generation, the tubing loops were drained, and the tube lumen gently rinsed with phosphate-buffered water to remove planktonic (i.e., non-biofilm) challenge microorganisms. The tubing was then disinfected according to the manufacturer's Instructions for Use. At the completion of treatment, a portion of the silicone tubing was removed for analysis of biofilm concentration and imaging of biofilm coverage.

The subject of series [5] is Candida albicans 48 hour biofilm. Briefly: P #5B-D Candida biofilm testing. It is filed as cell-based. The settings on record: pH 9.0-9.5, one hour contact time. Here is the method: Organisms: Candida albicans ([…] 1078). Date Culture Initiated: […] Culture Medium: Sabouraud dextrose agar. […] These tests were performed utilizing only UDA, due to the poor GML results in P #5A. […] […] Effect of Aspartic Acid, Cysteine, Salicylic Acid […] Prior literature indicates poor antifungal effects in alkaline pH, thus it was the intent to document whether disclosed compositions would generate an improved antifungal effect in alkaline pH.

The subject of a further series is cold sores. Briefly: Additional clinical data and case study, cold sores. It counts as in vivo, human. To be noted: case study patient (untreated 2-4 weeks).
For series [6] the following is noted: cited from earlier work.
The conditions of series [7]: aqueous.
Series [8] concerns Candida albicans (ATCC MYA-2876; TPPS 1078), planktonic. Briefly: P #5A planktonic antifungal testing. It is filed as cell-based. To be noted: up to 5-hour contact time, lecithin solubilizer. Here is the method:
Two sets of planktonic antifungal tests were performed, Candida and the dermatophyte Epidermophyton floccusum. Fungal strains-Candida albicans (ATCC MYA-2876; TPPS 1078) procured from the American Type Culture Collection, Manassas, VA.-Epidermophyton floccosum (ATCC 15693; TPPS 1243) procured from the American Type Culture Collection, Manassas, VA.

In a further series the test system is enveloped viruses. The settings on record: at 1 hour, virtually all enveloped viruses tested (Hierholzer, '16); cited from earlier work.
Series [9] relates to Pseudomonas aeruginosa biofilm. Briefly: Biofilm Protocol #3, LR against 48-hour biofilm, CDC Biofilm Reactor. It is filed as cell-based. The settings on record: pH 9.0, 5 hours contact time. Here is the method: LR testing was performed with varying compositions of GML and UDA against Staph. aureus, Pseudomonas aeruginosa, E. coli., Klebsiella pneumonia, Enterococcus faecalis. All biofilm is 48 hour laboratory grown. Biofilms of the tested organisms were grown in the laboratory to become mature 48-hour old biofilm. Testing involved the evaluation of numerous composition combinations for their ability to kill biofilm-associated pathogens grown using a CDC Biofilm Reactor. The ability to kill organisms was documented as a LR of the selected organisms that was measured as CFUs (colony forming units). LRs were documented for the different composition combinations. Testing protocols initially included both FAs and esters. […] LR testing was performed with numerous combinations to determine an optimal combination. […] Additional combinations comprised the plant phenol/flavonoid quercetin, amino acids, the synthetic surfactant SLS, biosurfactants RL and MEL, and UDA. The BS SL was not tested due to poor results in the prior P #2 configurations. […] The TSC served as a buffer. […] Alkaline pH was buffered with disodium hydrogen phosphate or glycine.

The next series relates to P. acnes. Briefly: Protocol #4 in-vitro time-kill (ASTM E2315). It is filed as cell-based, Propionibacterium acnes. How it is done: PURPOSE: This evaluation uses an in-vitro time-kill method to quantitatively assess the bactericidal activity of […] (10) formulations when challenged with P. acnes. An in vitro time-kill evaluation was conducted with various compositions based upon the methods described in the standardized ASTM […], Standard Guide for Assessment of Antimicrobial Activity Using a Time-Kill Procedure. […] A neutralization assay was performed on all the challenge organisms. Testing at pH 4.0.

Series [10] deals with Herpes Simplex Virus type 1 strain HF (ATCC #VR-260). The experiment in a line: Virucidal Suspension Test (ASTM E1052-20, in-vitro time-kill). The settings on record: pH 9.0, 30 sec. It counts as cell-based. The source says:
The testing was based upon ASTM E1052-20, Standard Practice to Assess the Activity of Microbicides against Viruses in Suspension. The first antiviral testing protocols involve only HSV-1 virus with both alkaline and acid pH tests.
This study was done to determine virucidal efficacy of twelve test products when challenged with Herpes Simplex Virus type 1 strain HF (ATCC #VR-260) based upon a Virucidal Suspension Test (In-Vitro Time-Kill method). The test products comprise 8 varying compositions. Calculations of the estimated virus concentrations was performed using a 50% tissue culture infectious dose (TCID50) calculation—the Quantal test (Spearman-Karber Method). The logo reductions from the initial population of the viral strain were determined following exposure to the test product for 30 seconds, 2.5 minutes and 5 minutes. Testing was conducted in one replicate. Plating was performed in four replicates. […]
This study was done to determine virucidal efficacy of 12 test products when challenged with HSV-1 strain HF (ATCC #VR-260) and Human Coronavirus strain OC43 (ZeptoMetrix #0810024CF) based upon a Virucidal Suspension Test (In-Vitro Time-Kill method). […] The log 10 reductions from the initial population of the viral strain were determined following exposure to the test product for 30 seconds, 2.5 minutes and 5 minutes. […]

The test system of series [11] is Staphylococcus aureus MRSA (ATCC #6538) biofilm. Briefly: Biofilm Protocol #2, ASTM E2871 single tube method, 48 hour biofilm. It is filed as cell-based. How it is done:
(§1) In this round of testing, it was the intent to test numerous potential antibiofilm combinations.
(§2) EtOH (ethanol) was used as a solvent for all hydrophobic compounds: SLs, CaprAc, CURC and OCT. EtOH was used at up to 1.0% concentration.
(§3) Alkaline pH is achieved with NaOH titration.
(§4) Each was performed in one replicate for each species. A single sponsor-selected exposure duration was evaluated. The challenge organisms for this evaluation were Pseudomonas aeruginosa (ATCC #15442) and Staphylococcus aureus MRSA (ATCC #6538

Series [12] deals with Pseudomonas aeruginosa (ATCC #15442) biofilm. The series is described as above. It counts as cell-based. Here is the method:
as §1, §2, §3, §4

For `O=C(OOC(=O)c1ccccc1)c1ccccc1` [BPO, benzoyl peroxide], in [1], the “BPO absorbed through the skin” value was 5-9%.
For `CCCCCC/C=C\CCCCCCCC(=O)O` [palmitoleic acid], in the series on C. trachomatis, the “reduction in the infectivity titer / inactivation” value is listed as “negligible effects”.
On to `CCCCCCCC/C=C\CCCCCCCC(=O)O` [oleic acid], for which the “reduction in the infectivity titer / inactivation” value with C. trachomatis is given as “negligible effects”.
Take `CC(C)CCCCCCCCC[C@@H]1CC(=O)N[C@@H](CCC(=O)O)C(=O)N[C@@H](CC(C)C)C(=O)N[C@H](CC(C)C)C(=O)N[C@@H](C(C)C)C(=O)N[C@@H](CC(=O)O)C(=O)N[C@H](CC(C)C)C(=O)N[C@@H](CC(C)C)C(=O)O1` [Surfactin] (EL[dL]VD[dL]L; linker N-C via X1): in series [2], the “Log10 Reduction” value is on record as 0.00, the “Percent Reduction” value is 0.00% and the “Log10 CFU/Coupon” value stood at 9.18. Besides, in series [3], the “Log10 Reduction” value came out at 0.00, the “Percent Reduction” value was 0.00% and the “Log10 CFU/Coupon” value is reported as 8.28.
Take `C=CCCCCCCCCC(=O)O` [UDA, undecylenic acid]: the LR in [4] was more than 5.31; in series [5], more than 4.
For the compound `CCCCCCCC/C=C\CCCCCCCC(=O)OCC(O)CO` (centres unmarked) [monoolein], in the series on C. trachomatis, the “reduction in the infectivity titer / inactivation” value is “negligible effects”.
As for `Nc1nc2c(ncn2COCCO)c(=O)[nH]1` [Acyclovir, acyclovir], the “time to resolution of cold sores” value in the series with cold sores was in the range of 7 to 14 days.
Take `CCCCCCCCN=c1ccn(CCCCCCCCCCn2ccc(=NCCCCCCCC)cc2)cc1` [J: OCT 0.02%, 0.2 mg/mL, octenidine]: in series [2], the “Log10 Reduction” value turned out to be 0.80, the “Percent Reduction” value was determined as 84.48% and the “Log10 CFU/Coupon” value was 8.35. In series [3] (0.2 mg/ml), the “Log10 Reduction” value came to 1.87, the “Percent Reduction” value was found to be 98.68% and the “Log10 CFU/Coupon” value stood at 6.34.
With `CCCCCCCC(=O)OCC(O)CO` (centres unmarked) [monocaprylin], in the series with C. trachomatis, the “reduction in the infectivity titer / inactivation” value is listed as “negligible effects”.
Take `CCCCCCCCCCCC(=O)OCC(O)CO` (centres unmarked) [GML, glycerol monolaurate]: in series [6], the maximal water solubility was less than 100 µg/mL. Further, the “maximum concentration of GML solubilized” value in series [7] (EtOH 1% as solvent) is recorded as 0.1%. The same compound displayed a GML concentration solubilized in series [7] (deoiled lecithin as solubilizer) not below 20%. Also, the “LRs against planktonic C. albicans” value in series [8] was 0-1. Also, in the series on enveloped viruses, the log reduction is listed as more than 3. Moreover, the “LR PA” value in series [9] stood at 9.11. Besides, in the series on C. trachomatis, the “reduction in the infectivity titer / inactivation” value is reported as “negligible effects”. In the series on P. acnes (pH 4.0, 30 seconds exposure), the “Log Reductions 0.5 (30 seconds)” value turned out to be 1.87. Also, the “Log Reductions 5 min” value in the series on P. acnes (pH 4.0, 5 min exposure) is 4.81. The “LR 30 sec” value in series [10] is > 5.5 and > 4.75 and > 5.25.
`CCCCCCCCN=c1ccn(CCCCCCCCCCn2ccc(=NCCCCCCCC)cc2)cc1` [I: OCT 0.1%, 1 mg/mL, octenidine]: in [2], the “Log10 Reduction” value is on record as 1.84, the “Percent Reduction” value amounted to 98.56% and the “Log10 CFU/Coupon” value is recorded as 7.31. In series [3] (1 mg/mL.), the “Log10 Reduction” value is 3.28, the “Percent Reduction” value was 99.95% and the “Log10 CFU/Coupon” value is reported as 4.93.
benzalkonium chloride [BAC]: in series [11] (Acid pH 4.0), the “LOG REDUCTIONS Staph” value is 6.12 and > 7. Also, in [12] (Acid pH 4.0), the “LOG REDUCTIONS Pseud” value is > 6 and > 7.
`CCCCCCCCCCCCCC(=O)O` [myristic acid]: the “reduction in the infectivity titer / inactivation” value in the series on C. trachomatis is listed as “negligible effects”.
As for `CCCCCCCC(=O)O` [Caprylic acid], the “reduction in the infectivity titer / inactivation” value with C. trachomatis is reported as “negligible effects”.
On to `CCCCCC/C=C\CCCCCCCC(=O)OCC(O)CO` (centres unmarked) [monopalmitolein], for which, in the series with C. trachomatis, the “reduction in the infectivity titer / inactivation” value is “negligible effects”.
Turning to `CCCCCCCCCCCCOS(=O)(=O)[O-].[Na+]` [SLS, sodium lauryl sulfate], the “LR PA” value in series [9] is 3.76.
As to `CCCCCCCCCC(=O)OCC(O)CO` (centres unmarked) [monocaprin], in the series on C. trachomatis, the “reduction in the infectivity titer / inactivation” value is on record as more than 5 log 10.
On to `CCCCCCCCN=c1ccn(CCCCCCCCCCn2ccc(=NCCCCCCCC)cc2)cc1` [OCT, octenidine], for which the “LOG REDUCTIONS Staph” value turned out to be 1.08 in series [11] (Acid pH 4.0) and 7.9 in series [11] (Alkaline pH 8.5). Also, the “LOG REDUCTIONS Pseud” value in [12] (Acid pH 4.0) is on record as 4.9; in series [12] (Alkaline pH 8.5), 9.11.
